One assay deals with wild-type human cardiac sodium channel, hNav1.5 (Homo sapiens, UniProt Q14524). The assay can be described thus: Late INa screening assay (late sodium current, PatchXpress whole cell patch clamp). In kind it is cell-based. The settings on record: compound at 10 μM; read-out: Late INa % blk.
Chain of wild-type human cardiac sodium channel, hNav1.5 (Q14524 whole entry): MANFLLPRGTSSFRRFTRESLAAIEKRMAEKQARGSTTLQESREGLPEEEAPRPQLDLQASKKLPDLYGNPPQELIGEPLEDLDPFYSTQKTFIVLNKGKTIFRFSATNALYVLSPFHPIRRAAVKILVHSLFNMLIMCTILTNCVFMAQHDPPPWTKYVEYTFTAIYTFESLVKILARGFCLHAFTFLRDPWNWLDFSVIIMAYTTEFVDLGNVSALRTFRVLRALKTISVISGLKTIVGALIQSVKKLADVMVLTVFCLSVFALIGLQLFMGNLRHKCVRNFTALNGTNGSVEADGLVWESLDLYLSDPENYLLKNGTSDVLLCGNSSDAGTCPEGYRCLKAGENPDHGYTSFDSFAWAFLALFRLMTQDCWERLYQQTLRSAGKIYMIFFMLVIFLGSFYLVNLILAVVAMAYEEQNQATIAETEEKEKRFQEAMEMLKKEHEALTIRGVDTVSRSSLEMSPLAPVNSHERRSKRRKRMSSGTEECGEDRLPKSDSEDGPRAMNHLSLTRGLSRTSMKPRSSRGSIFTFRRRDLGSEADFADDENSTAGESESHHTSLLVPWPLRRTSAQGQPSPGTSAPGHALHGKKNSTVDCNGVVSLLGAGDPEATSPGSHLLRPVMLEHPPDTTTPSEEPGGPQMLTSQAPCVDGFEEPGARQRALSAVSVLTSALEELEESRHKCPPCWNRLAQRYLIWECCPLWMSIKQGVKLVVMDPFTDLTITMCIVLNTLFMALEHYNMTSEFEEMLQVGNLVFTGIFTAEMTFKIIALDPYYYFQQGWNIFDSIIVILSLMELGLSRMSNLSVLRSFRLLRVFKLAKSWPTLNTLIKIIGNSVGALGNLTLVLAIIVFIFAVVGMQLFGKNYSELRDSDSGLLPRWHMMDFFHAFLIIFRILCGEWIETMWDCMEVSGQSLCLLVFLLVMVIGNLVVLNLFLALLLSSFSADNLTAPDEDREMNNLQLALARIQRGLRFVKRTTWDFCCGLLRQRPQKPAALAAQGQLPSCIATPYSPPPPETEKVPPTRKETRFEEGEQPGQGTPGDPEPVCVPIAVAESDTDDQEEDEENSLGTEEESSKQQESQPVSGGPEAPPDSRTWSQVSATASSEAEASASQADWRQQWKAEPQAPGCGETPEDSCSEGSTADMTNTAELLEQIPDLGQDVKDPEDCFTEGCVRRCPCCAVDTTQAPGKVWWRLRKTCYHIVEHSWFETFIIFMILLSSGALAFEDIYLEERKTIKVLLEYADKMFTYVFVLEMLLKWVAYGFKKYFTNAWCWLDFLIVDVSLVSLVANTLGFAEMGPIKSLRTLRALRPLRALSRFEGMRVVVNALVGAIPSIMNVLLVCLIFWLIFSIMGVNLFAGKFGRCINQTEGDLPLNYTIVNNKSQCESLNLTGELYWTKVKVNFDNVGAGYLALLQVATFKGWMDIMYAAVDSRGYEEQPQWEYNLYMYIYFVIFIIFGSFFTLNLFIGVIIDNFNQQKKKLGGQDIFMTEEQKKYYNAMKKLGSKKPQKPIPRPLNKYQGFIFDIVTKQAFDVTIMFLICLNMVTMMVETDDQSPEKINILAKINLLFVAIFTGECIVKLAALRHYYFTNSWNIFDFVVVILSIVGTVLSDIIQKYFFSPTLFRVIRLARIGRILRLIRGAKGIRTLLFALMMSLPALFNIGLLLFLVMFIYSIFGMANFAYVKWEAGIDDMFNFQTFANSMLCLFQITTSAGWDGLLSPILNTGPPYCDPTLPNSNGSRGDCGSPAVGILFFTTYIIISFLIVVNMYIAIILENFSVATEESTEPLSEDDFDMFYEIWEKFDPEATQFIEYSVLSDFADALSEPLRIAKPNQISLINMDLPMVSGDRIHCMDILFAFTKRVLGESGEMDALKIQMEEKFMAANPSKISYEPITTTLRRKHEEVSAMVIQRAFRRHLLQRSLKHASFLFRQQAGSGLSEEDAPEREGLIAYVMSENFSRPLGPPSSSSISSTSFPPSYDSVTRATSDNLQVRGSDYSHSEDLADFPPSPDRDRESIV
For the compound `CC1=C(C(=O)OCc2ccccc2)C(c2cc(Br)ccc2OCc2ccccc2)n2nnnc2N1` (stereo not drawn) [PT-381, benzyl 7-(2-(benzyloxy)-5-bromophenyl)-5-methyl-4,7-dihydrotetrazolo[1,5-a]pyrimidine-6-carboxylate], the inhibition at 10 µM stood at 43.7%. On to `CC1=C(C(=O)OCc2ccccc2)C(c2ccccc2OCc2ccccc2)n2nnnc2N1` (stereo not drawn) [PT-383, benzyl 7-(2-(benzyloxy)phenyl)-5-methyl-4,7-dihydrotetrazolo[1,5-a]pyrimidine-6-carboxylate], for which the inhibition at 10 µM was 79.5%. Same read-out and setting: under `CCOC(=O)C1=C(C)Nc2nnnn2C1c1ccccc1Oc1cccc(C(=O)OCC)c1` (stereo not drawn) [PT-479, ethyl 7-(2-(3-(ethoxycarbonyl)phenoxy)phenyl)-5-methyl-4,7-dihydrotetrazolo[1,5-a]pyrimidine-6-carboxylate] stands 35.7%. The same measure, in the same setting: in the case of `CC1=C(C(=O)OCc2ccccc2)[C@@H](c2ccccc2-c2ccc(C(N)=O)cc2)n2nnnc2N1` [PT-242, (R)-benzyl 7-(4′-carbamoylbiphenyl-2-yl)-5-methyl-4,7-dihydrotetrazolo[1,5-a]pyrimidine-6-carboxylate] it was 11%. The same measure, in the same setting: under `CC1=C(C(=O)N2CCCCC2)C(c2cccc3ccccc23)C2=C(CCCC2=O)N1` (stereo not drawn) [PT-265, 2-methyl-4-(naphthalen-1-yl)-3-(piperidine-1-carbonyl)-4,6,7,8-tetrahydroquinolin-5(1H)-one] stands 18.6%; under `CCOC(=O)C1=C(C)Nc2ccnn2C1c1ccc(N(C)C)c2ccccc12` (stereo not drawn) [PT-502, ethyl 7-(4-(dimethylamino)naphthalen-1-yl)-5-methyl-4,7-dihydropyrazolo[1,5-a]pyrimidine-6-carboxylate], 27%; under `CCn1c2ccccc2c2cc(C3C(C(=O)OCc4ccccc4)=C(C)Nc4nnnn43)ccc21` (stereo not drawn) [PT-422, benzyl 7-(9-ethyl-9H-carbazol-3-yl)-5-methyl-4,7-dihydrotetrazolo[1,5-a]pyrimidine-6-carboxylate], 35.2%. On to `COc1ccc(-c2ccc(COC(=O)C3=C(C)Nc4nnnn4C3c3cccc4ccccc34)cc2)cc1` (stereo not drawn) [PT-199, (4′-methoxybiphenyl-4-yl)methyl 5-methyl-7-(naphthalen-1-yl)-4,7-dihydrotetrazolo[1,5-a]pyrimidine-6-carboxylate], for which the inhibition at 10 µM came out at 20.3%. The same measure, in the same setting: in the case of `CCOC(=O)C1=C(C)NC(C)=C(C(=O)OCC)C1c1ccccc1-c1ccccc1` [PT-438, diethyl 4-(biphenyl-2-yl)-2,6-dimethyl-1,4-dihydropyridine-3,5-dicarboxylate] it was 20.9%; in that of `CC1=C(C(=O)OCc2ccccc2)C(c2ccccc2-c2ccc(OCc3ccccc3)cc2)n2nnnc2N1` (stereo not drawn) [PT-407, benzyl 7-(4′-(benzyloxy)biphenyl-2-yl)-5-methyl-4,7-dihydrotetrazolo[1,5-a]pyrimidine-6-carboxylate], 10.6%; in that of `CC1=C(C(=O)OCc2ccccc2)C(c2cnc(N3CCOCC3)s2)n2nnnc2N1` (stereo not drawn) [PT-346, benzyl 5-methyl-7-(2-morpholinothiazol-5-yl)-4,7-dihydrotetrazolo[1,5-a]pyrimidine-6-carboxylate], 23%.

For the compound `CCOC(=O)C1=C(C)Nc2nnnn2C1c1ccccc1Oc1ccc(C(=O)OCC)cc1` (stereo not drawn) [PT-483, ethyl 7-(2-(4-(ethoxycarbonyl)phenoxy)phenyl)-5-methyl-4,7-dihydrotetrazolo[1,5-a]pyrimidine-6-carboxylate], the inhibition at 10 µM was 31.8%. The same measure, in the same setting: in the case of `CC1=C(C(=O)OCc2ccccc2)C(c2ccc(N(C)C)cc2)n2nnnc2N1` (stereo not drawn) [PT-410, benzyl 7-(4-(dimethylamino)phenyl)-5-methyl-4,7-dihydrotetrazolo[1,5-a]pyrimidine-6-carboxylate] it was 11.4%. With `CC1=C(c2nnc(C)o2)C(c2cccc3ccccc23)n2nnnc2N1` (stereo not drawn) [PT-267, 2-methyl-5-(5-methyl-7-(naphthalen-1-yl)-4,7-dihydrotetrazolo[1,5-a]pyrimidin-6-yl)-1,3,4-oxadiazole], the inhibition at 10 µM was 17%. The same measure, in the same setting: under `COCCOC(=O)C1=C(C)NC2=C(C(=O)CC(C)(C)C2)C1c1ccc(Oc2ccccc2)cc1` (stereo not drawn) [PT-156, 2-methoxyethyl 2,7,7-trimethyl-5-oxo-4-(4-phenoxyphenyl)-1,4,5,6,7,8-hexahydroquinoline-3-carboxylate] stands 36.6%; under `CCOC(=O)C1=C(C)Nc2[nH]nc(C)c2C1c1cccs1` (stereo not drawn) [PT-443, ethyl 3,6-dimethyl-4-(thiophen-2-yl)-4,7-dihydro-1H-pyrazolo[3,4-b]pyridine-5-carboxylate], 20%.

Consider `CC1=C(C(=O)OCc2ccccc2)C(c2ccnc3ccccc23)n2nnnc2N1` (stereo not drawn) [PT-197, benzyl 5-methyl-7-(quinolin-4-yl)-4,7-dihydrotetrazolo[1,5-a]pyrimidine-6-carboxylate], for which the inhibition at 10 µM was 21.5%. Same read-out and setting: under `CCOC(=O)C1=C(C)NC(C)=C(C(=O)OCC)C1c1ccc(OC)cc1C#N` [PT-431, diethyl 4-(2-cyano-4-methoxyphenyl)-2,6-dimethyl-1,4-dihydropyridine-3,5-dicarboxylate] stands 56.1%; under `CCOC(=O)C1=C(C)N(CC#N)c2nnnn2C1c1cccc2ccccc12` (stereo not drawn) [PT-456, ethyl 4-(cyanomethyl)-5-methyl-7-(naphthalen-1-yl)-4,7-dihydrotetrazolo[1,5-a]pyrimidine-6-carboxylate], 2.7%. Still for that read-out and setting: under `CC1=C(C(=O)OCc2ccccc2)C(c2ccc(C(F)(F)F)cc2[N+](=O)[O-])n2nnnc2N1` (stereo not drawn) [PT-347, benzyl 5-methyl-7-(2-nitro-4-(trifluoromethyl)phenyl)-4,7-dihydrotetrazolo[1,5-a]pyrimidine-6-carboxylate] stands 5.1%; under `CCOC(=O)C1=C(C)N(CC(=O)Nc2c(C)cccc2C)c2nnnn2C1c1ccccc1Br` (stereo not drawn) [PT-490, ethyl 7-(2-bromophenyl)-4-(2-(2,6-dimethylphenylamino)-2-oxoethyl)-5-methyl-4,7-dihydrotetrazolo[1,5-a]pyrimidine-6-carboxylate], 7.3%; under `CSc1ccc(C2C(C(=O)OCc3ccccc3)=C(C)Nc3nnnn32)cc1` (stereo not drawn) [PT-356, benzyl 5-methyl-7-(4-(methylthio)phenyl)-4,7-dihydrotetrazolo[1,5-a]pyrimidine-6-carboxylate], 16.4%. Still for that read-out and setting: under `CCOC(=O)C1=C(C(C)C)Nc2nnnn2C1c1ccc2ccccc2c1` (stereo not drawn) [PT-012, ethyl 5-isopropyl-7-(naphthalen-2-yl)-4,7-dihydrotetrazolo[1,5-a]pyrimidine-6-carboxylate] stands 40.1%; under `CCOC(=O)C1=C(C)Nc2nnnn2C1c1ccccc1OCc1cccc(C(=O)O)c1` (stereo not drawn) [PT-268, 3-((2-(6-(ethoxycarbonyl)-5-methyl-4,7-dihydrotetrazolo[1,5-a]pyrimidin-7-yl)phenoxy)methyl)benzoic acid], 9.5%; under `CC1=C(C(=O)OCc2ccccc2)C(c2ccccc2Br)C2=C(CCCC2=O)N1` (stereo not drawn) [PT-329, benzyl 4-(2-bromophenyl)-2-methyl-5-oxo-1,4,5,6,7,8-hexahydroquinoline-3-carboxylate], 54.9%. `CC1=C(C(=O)OCc2ccc(Cn3cccn3)cc2)C(c2ccccc2OCc2ccccc2)n2nnnc2N1` (stereo not drawn) [PT-282, 4-((1H-pyrazol-1-yl)methyl)benzyl 7-(2-(benzyloxy)phenyl)-5-methyl-4,7-dihydrotetrazolo[1,5-a]pyrimidine-6-carboxylate]: the inhibition at 10 µM came to 30.2%. The same measure, in the same setting: under `CCOC(=O)C1=C(C)Nc2nnnn2C1c1ccccc1-c1cccc(C#N)c1` (stereo not drawn) [PT-499, ethyl 7-(3′-cyanobiphenyl-2-yl)-5-methyl-4,7-dihydrotetrazolo[1,5-a]pyrimidine-6-carboxylate] stands 27.7%; under `COC(=O)C1=C(C)Nc2nnnn2C1c1ccc(Br)s1` (stereo not drawn) [PT-522, methyl 7-(5-bromothiophen-2-yl)-5-methyl-4,7-dihydrotetrazolo[1,5-a]pyrimidine-6-carboxylate], 37.7%. `CCOC(=O)C1=C(C)NC(C)=C(C(=O)OCC)C1c1cccc(-c2ccccc2)c1` [PT-439, diethyl 4-(biphenyl-3-yl)-2,6-dimethyl-1,4-dihydropyridine-3,5-dicarboxylate]: the inhibition at 10 µM was 56.1%. Still for that read-out and setting: under `CCOC(=O)C1=C(C)Nc2nccn2C1c1cccc2ccccc12` (stereo not drawn) [PT-087, ethyl 7-methyl-5-(naphthalen-1-yl)-5,8-dihydroimidazo[1,2-a]pyrimidine-6-carboxylate] stands 16.5%.

For `CC1=C(C(=O)OCc2ccccc2)C(c2ccc3ccccc3c2)c2cn[nH]c2N1` (stereo not drawn) [PT-368, benzyl 6-methyl-4-(naphthalen-2-yl)-4,7-dihydro-1H-pyrazolo[3,4-b]pyridine-5-carboxylate], the inhibition at 10 µM is -4.2%. Turning to `CCOC(=O)C1=C(C)Nc2nnnn2C1c1ccccc1Oc1ccc(S(N)(=O)=O)cc1` (stereo not drawn) [PT-458, ethyl 5-methyl-7-(2-(4-sulfamoylphenoxy)phenyl)-4,7-dihydrotetrazolo[1,5-a]pyrimidine-6-carboxylate], the inhibition at 10 µM amounted to 19%. On the same count and under the same terms, under `CCOC(=O)C1=C(C)Nc2[nH]ncc2C1c1c(Br)sc2ccccc12` (stereo not drawn) [PT-447, ethyl 4-(2-bromobenzo[b]thiophen-3-yl)-6-methyl-4,7-dihydro-1H-pyrazolo[3,4-b]pyridine-5-carboxylate] stands 77.4%; under `CC1=C(C(=O)OCc2ccccc2)C(c2ccc(C(F)(F)F)cc2C(F)(F)F)n2nnnc2N1` (stereo not drawn) [PT-384, benzyl 7-(2,4-bis(trifluoromethyl)phenyl)-5-methyl-4,7-dihydrotetrazolo[1,5-a]pyrimidine-6-carboxylate], 29.4%.

The same assay, now with this note: read-out: Late INa % blk.
Take `Cc1ccc(-c2n[nH]c3c2C(c2cccc4ccccc24)C2=C(COC2=O)N3)cc1` (stereo not drawn) [PT-078]: the inhibition at 10 µM was 46.3%.

The assay is the same for the next values; noted with them: result in words.
On to `CC1=C(C(=O)N2CCN(c3ccccc3)CC2)C(c2ccsc2)C2=C(CCCC2=O)N1` (stereo not drawn) [PT-166, 2-methyl-3-(4-phenylpiperazine-1-carbonyl)-4-(thiophen-3-yl)-4,6,7,8-tetrahydroquinolin-5(1H)-one], for which the “effect on late sodium current” value is “potentiated late sodium current”.

These data come from patent US20090012103A1, “SUBSTITUTED HETEROCYCLIC COMPOUNDS” (priority 2007, published 2009).
